In PMC10525927, “First Generation of Antioxidant Precursors for Bioisosteric Se-NSAIDs: Design, Synthesis, and In Vitro and In Vivo Anticancer Evaluation” (Antioxidants, 2023):
Read-outs that look alike come from different tables or passages of the source.

Assays:
[1] = test system: PC-3 prostate cancer cells; parameters: method as in PMID 26750401, PMID 32987314, PMID 33799070, PMID 36257283; conditions: MTT; parent NSAIDs for reference, some values obtained from the literature; cited from earlier work
[2] = test system: DU-145 prostate cancer cells; parameters: method as in PMID 26750401, PMID 32987314, PMID 33799070, PMID 36257283; conditions: MTT; parent NSAIDs for reference, some values obtained from the literature; cited from earlier work
[3] = test system: T-47D breast cancer cells; parameters: method as in PMID 26750401, PMID 32987314, PMID 33799070, PMID 36257283; conditions: MTT; parent NSAIDs for reference, some values obtained from the literature; cited from earlier work
[4] = test system: HCT-116 colon cancer cells; parameters: method as in PMID 26750401, PMID 32987314, PMID 33799070, PMID 36257283; conditions: MTT; parent NSAIDs for reference, some values obtained from the literature; cited from earlier work
[5] = test system: MDA-MB-231 breast cancer cells; parameters: method as in PMID 26750401, PMID 32987314, PMID 33799070, PMID 36257283; conditions: MTT; parent NSAIDs for reference, some values obtained from the literature; cited from earlier work
[6] = test system: H1299 lung cancer cells; parameters: method as in PMID 26750401, PMID 32987314, PMID 33799070, PMID 36257283; conditions: MTT; parent NSAIDs for reference, some values obtained from the literature; cited from earlier work
[7] = test system: HT-29 colon cancer cells; parameters: method as in PMID 26750401, PMID 32987314, PMID 33799070, PMID 36257283; conditions: MTT; parent NSAIDs for reference, some values obtained from the literature; cited from earlier work
[8] = test system: A549 lung cancer cells; parameters: method as in PMID 26750401, PMID 32987314, PMID 33799070, PMID 36257283; conditions: MTT; parent NSAIDs for reference, some values obtained from the literature; cited from earlier work
[9] = test system: H1299 lung cancer cells; assay: MTT cell viability assay, H1299; type: cell-based; conditions: mean ± SD
Description: (§1) The cell lines were purchased from the American Type Culture Collection (ATCC). The cancer cell lines DU-145, PC-3, T-47D, MDA-MB-231, H1299, and A549, and the non-tumorigenic cells (184B5 and BEAS-2B), were maintained in RPMI 1640 medium (Gibco, Alcobendas, Madrid, Spain) supplemented with 10% fetal bovine serum (FBS; Gibco) and 1% antibiotics (10.00 units/mL penicillin and 10.00 mg/mL streptomycin; Gibco). Colon cancer cells HT-29 and HCT-116 were cultured in McCoy’s 5A medium (Gibco) supplemented with 10% fetal bovine serum (FBS; Gibco) and 1% antibiotics (10.00 units/mL penicillin and 10.00 mg/mL streptomycin; Gibco). Cells were maintained in tissue culture flasks at 37 °C and 5% CO2. The culture medium was replaced every three days.
(§2) The antiproliferative activity and selectivity in vitro of the Se-NSAID derivatives were determined by the (3-(4,5-dimethylthiazol-2-yl)-2,5-diphenyltetrazolium bromide) (MTT) assay. Compounds were dissolved in DMSO at a concentration of 0.01 M and serial dilutions were prepared. The Se-NSAID derivatives were tested at seven concentrations ranging between 1 and 100 µM in the colon (HT-29 and HCT-116), prostate (DU-145 and PC-3), breast (MDA-MB-231 and T-47D), and lung (H1299 and A549) cancer cell lines. The non-tumorigenic breast (184B5) and lung (BEAS-2B) cell lines were also tested to assess the selectivity of the compounds following the same procedure. A total of 1 × 10^4 cells were seeded per well in 96-well plates and incubated at 5% CO2 and 37 °C for 24 h. Then, cells were treated with either DMSO or increasing concentrations of the corresponding Se-NSAID derivatives for 48 h. A volume of 20 µL of MTT (5 mg/mL) was added to each well 2.5 h before the termination point. At the end of the experiment, the medium was removed, and the resultant formazan crystals formed by mitochondrial reduction of MTT were dissolved in 50 µL of DMSO. Absorbance was measured at 550 nm. IC50, GI50, TGI, and LC50 values were calculated using OriginPro version 8.5.1. software by nonlinear curve fitting. Selectivity indexes (SI) were calculated as the ratio of the IC50 values determined for the nonmalignant and the tumoral cells in the breast (IC50 (184B5)/IC50 (MDA-MB-231) and IC50 (184B5)/IC50 (T-47D)) and lung (IC50 (BEAS-2B)/IC50 (H1299) and IC50 (BEAS-2B)/IC50 (A549)) cell lines. Data were obtained from at least three independent experiments performed in triplicates.

[10] = test system: HT-29 colon cancer cells; assay: MTT cell viability assay, HT-29; type: cell-based; conditions: mean ± SD
Description: as §1, §2

[11] = test system: PC-3 prostate cancer cells; assay: MTT cell viability assay, PC-3; type: cell-based; conditions: 48 h, mean ± SD, Table S1
Description: as §1, §2

[12] = test system: MDA-MB-231 breast cancer cells; assay: MTT cell viability assay, MDA-MB-231; type: cell-based; conditions: mean ± SD
Description: as §1, §2

[13] = test system: 184B5 non-tumorigenic breast (mammary gland) cells; assay: MTT cell viability assay, 184B5; type: cell-based; conditions: mean ± SD; for IC50: nonmalignant breast cells
Description: as §1, §2

[14] = test system: T-47D breast cancer cells; assay: MTT cell viability assay, T-47D; type: cell-based; conditions: 48 h, mean ± SD
Description: as §1, §2

[15] = test system: A549 lung cancer cells; assay: MTT cell viability assay, A549; type: cell-based; conditions: mean ± SD
Description: as §1, §2

[16] = test system: DU-145 prostate cancer cells; assay: MTT cell viability assay, DU-145; type: cell-based; conditions: mean ± SD
Description: as §1, §2

[17] = test system: BEAS-2B non-tumorigenic lung (bronchial epithelium) cells; assay: MTT cell viability assay, BEAS-2B; type: cell-based; conditions: 48 h, mean ± SD; for IC50: nonmalignant lung cells
Description: as §1, §2

[18] = test system: HCT-116 colon cancer cells; assay: MTT cell viability assay, HCT-116; type: cell-based; conditions: mean ± SD
Description: as §1, §2

[19] = in vitro TGI concentration, 48 h, Table S1
[20] = in vitro TGI concentration, Table S1

In the case of `CC(=O)Oc1ccccc1C(=O)O` [ASA, aspirin], the IC50 [1] is listed as greater than 50 µM, the IC50 [2] is listed as greater than 50 µM and the IC50 [3] is listed as greater than 50 µM. For the same molecule, the IC50 [4] was greater than 50 µM, the IC50 [5] was greater than 50 µM and the IC50 [6] was greater than 50 µM. For the same molecule, the IC50 [7] was greater than 50 µM and the IC50 [8] was greater than 50 µM.

In the case of `CC(=O)Oc1ccccc1C(=O)[Se][Se]C(=O)c1ccccc1OC(C)=O` [Compound 1, 2-Acetoxybenzoic diselenoperoxyanhydride], the IC50 ([9]; 48 h) is reported as 8.6 ± 0.8 µM, the IC50 ([9]; Homo sapiens, NCI-H1299, 48 h) is reported as less than 10 µM and the GI50 ([9]; Homo sapiens, NCI-H1299, 48 h, Table S1) is reported as 7.7 ± 1.2 µM. For the same molecule, the “TGI H1299” value [9, 19] was 9.4 ± 0.8 µM, the IC50 ([10]; Homo sapiens, HT-29, 48 h) was 6.6 ± 2.2 µM and the GI50 ([10]; Homo sapiens, HT-29, 48 h, Table S1) was 3.9 ± 0.4 µM. For the same molecule, the “TGI HT-29” value [10, 19] was 6.2 ± 1.9 µM, the GI50 [11] was 2.8 ± 0.2 µM and the “LD50 PC-3” value [11] was 3.3 ± 0.4 µM. For the same molecule, the “TGI PC-3” value ([11]; in vitro TGI concentration) was 3.0 ± 0.3 µM, the IC50 ([12]; Homo sapiens, MDA-MB-231, 48 h) was 18.3 ± 6.9 µM and the GI50 ([12]; Homo sapiens, MDA-MB-231, 48 h, Table S1) was 6.6 ± 2.2 µM. The “TGI MDA-MB-231” value [12, 19] was 15.3 ± 4.6 µM, the “LD50 184B5” value ([13]; 48 h, Table S1) was 21.1 ± 3.9 µM and the IC50 ([13]; 48 h) was 14.4 ± 1.5 µM. For the same molecule, the GI50 ([13]; Homo sapiens, 184B5, 48 h, Table S1) was 7 ± 1.1 µM, the IC50 ([13]; Homo sapiens, 184B5, 48 h) was 14 to 19 µM and the “TGI 184B5” value [13, 19] was 11.3 ± 1.4 µM. The “LD50 T-47D” value ([14]; Table S1) was 6.0 ± 1.9 µM, the IC50 ([14]; Homo sapiens, T47D) was 5.9 ± 1.4 µM and the GI50 ([14]; Homo sapiens, T47D, Table S1) was 1.6 ± 0.3 µM. The “TGI T-47D” value [14, 20] was 2.9 ± 0.6 µM, the IC50 ([15]; 48 h) was 7 ± 1.3 µM and the “LD50 A549” value ([15]; 48 h, Table S1) was 74.6 ± 5.9 µM. The IC50 ([15]; Homo sapiens, A549, 48 h) was less than 10 µM, the GI50 ([15]; Homo sapiens, A549, 48 h, Table S1) was greater than 100 µM and the “TGI A549” value [15, 19] was 26.2 ± 5.8 µM. For the same molecule, the IC50 ([16]; 48 h) was 5 ± 0.1 µM, the “LD50 DU-145” value ([16]; 48 h, Table S1) was 6.1 ± 0.7 µM and the IC50 ([16]; Homo sapiens, DU-145, 48 h) was less than 10 µM. The GI50 ([16]; Homo sapiens, DU-145, 48 h, Table S1) was 4.4 ± 0.5 µM, the “TGI DU-145” value [16, 19] was 5.1 ± 0.2 µM and the “LD50 BEAS-2B” value ([17]; Table S1) was 17.0 ± 5.7 µM. The IC50 [17] was 18.5 ± 3 µM, the GI50 ([17]; Homo sapiens, BEAS-2B, Table S1) was 3.9 ± 1.3 µM and the IC50 ([17]; Homo sapiens, BEAS-2B) was 14 to 19 µM. The “TGI BEAS-2B” value [17, 20] was 8.4 ± 2.4 µM, the IC50 ([18]; 48 h) was 39.2 ± 7.3 µM and the “LD50 HCT-116” value ([18]; 48 h, Table S1) was 88.0 ± 3.5 µM. The IC50 ([18]; Homo sapiens, HCT-116, 48 h) was roughly 40 µM, the GI50 ([18]; Homo sapiens, HCT-116, 48 h, Table S1) was 21 ± 4 µM and the “TGI HCT-116” value [18, 19] was 44.5 ± 7.1 µM.
